Experiments:
[1] = cited from earlier work; for polymorphic conversion: DRX2: upon temperature increase, DRX3: outside dry conditions
[2] = cited from earlier work
[3] = Behaviour on heating by TG/DTA; format: physicochemical; details: lost small amounts of water
Protocol: Thermogravimetric analyses were carried out on a Mettler Toledo TGA/DSC1 STARe. The calibration standards were indium and tin. Samples were placed in an aluminium sample pan, inserted into the TG furnace and accurately weighed. The heat flow signal was stabilised for one minute at 30° C., prior to heating to 270° C. in a stream of nitrogen at a rate of 10° C./minute.
Masitinib mesylate (25 mg) was charged into a scintillation vial followed by methanol (containing small amounts of water; 1.0 mL). The suspension was then heated until the masitinib mesylate had dissolved. The masitinib mesylate solution in methanol was then allowed to slowly cool to room temperature. The crystals which formed were then harvested by filtration and analyzed by XRPD and TG/DTA.

[4] = Dynamic Vapour Sorption (DVS) hygroscopicity; format: physicochemical
Protocol: Dynamic Vapour Sorption (DVS) was performed using a Hiden Analytical Instruments IGAsorp Vapour Sorption Balance. Approximately 30 mg of sample was placed into a wire-mesh vapour sorption balance pan, loaded into the IGAsorp vapour sorption balance and held at 25° C.±0.1° C. The sample was subjected to a step profile from 40% RH to 90% RH at 10% increments, followed by desorption from 90% RH to 0% RH at 10% increments and a second adsoriotn cycle from 0% RH to 90% RH. The equilibrium criterion was set to 99.0% step completion within a minimum of 60 minutes and a maximum of 5 hours for each increment. The weight change during the sorption cycle was monitored, allowing for the hygroscopic nature of the sample to be determined. The data collection interval was in seconds.
The hygrosopicity of masitinib mesylate form H as obtained from example 2 was assessed by DVS. The DVS isotherm was initiated at 40% r.h. and increased to 70% r.h. The weight gain in this relative humidity interval was below 0.27% (w/w).

[5] = as described in response to the eESR

**Q.** Which polymorphic conversion [1] does the source give for masitinib mesylate [DRX2] here?
**A.** slowly, but fully, converts to DRX1

**Q.** And the polymorphic stability [1, 5]?
**A.** stable only at 25 °C

**Q.** Which results are given for masitinib mesylate [DRX3]?
**A.** polymorphic conversion [1]: quickly converts to DRX2; polymorphic stability [1, 5]: stable under dry conditions only

**Q.** With Masitinib mesylate [crystal form I] as the substance, how does the hygroscopicity [1, 5] read?
**A.** mildly hygroscopic

**Q.** What about the “behaviour at 80% relative humidity” value ([2]; 80% relative humidity) of the same substance?
**A.** remains dry

**Q.** And the thermodynamic stability ([2]; at temperatures below 200° C.)?
**A.** thermodynamically stable

**Q.** For “masitinib mesylate [Comparative Example]”, which “polymorphic conversion upon heating” value [3] is on record?
**A.** converted to masitinib mesylate crystal form I upon heating

**Q.** With Masitinib mesylate [form H] as the substance, how does the “hygroscopicity compared with form I” value ([4]; DVS) read?
**A.** less hygroscopic than masitinib mesylate form I

**Q.** What about the “weight gain in relative humidity interval (DVS)” value ([4]; DVS isotherm from 40% r.h. to 70% r.h., form H from example 2) of the same substance?
**A.** below 0.27 % (w/w)

**Q.** What about the “water absorbed (DVS)” value ([4]; interval of relative humidity between 40% and 70% r.h.) of the same substance?
**A.** less than 0.5 weight %
